Test results as given in patent US6369261B1, “Compounds having activity as inhibitors of cytochrome P450RAI” (Allergan Sales, Inc., priority 2000, dated 2002).
pKd: −log10 of the molar value.

Legend:
[1] = system: SKH1-hrBR or hairless mouse; test: topical skin irritation test in hairless mice; type: in vivo; details: topical in acetone, once daily days 1 through 5, mean ±SD, range 0-21
Source text: Mice were housed individually throughout the dosing period.
Doses are disclosed as nmol/25 g.
The grading scale used is as follows:
Values can range from 0-9.
Values can range from 0-8.

[2] = target: T1, RARβ (Homo sapiens, UniProt P10826); test: ligand binding assay; details: last line of the stacked cell, read-out: RAR Kd β
T1 sequence (P10826 1-455): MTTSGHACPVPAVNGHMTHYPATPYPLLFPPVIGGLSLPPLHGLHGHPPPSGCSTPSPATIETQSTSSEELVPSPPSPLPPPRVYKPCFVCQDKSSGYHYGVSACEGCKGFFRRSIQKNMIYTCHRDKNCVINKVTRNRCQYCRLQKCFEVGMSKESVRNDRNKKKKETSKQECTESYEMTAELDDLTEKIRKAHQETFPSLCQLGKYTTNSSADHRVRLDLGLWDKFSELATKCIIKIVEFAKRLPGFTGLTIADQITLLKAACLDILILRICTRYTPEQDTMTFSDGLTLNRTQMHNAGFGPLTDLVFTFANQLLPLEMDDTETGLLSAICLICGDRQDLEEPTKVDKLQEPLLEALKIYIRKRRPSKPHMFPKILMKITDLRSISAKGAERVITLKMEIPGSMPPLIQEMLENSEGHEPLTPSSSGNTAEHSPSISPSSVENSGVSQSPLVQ
Source text: (§1) Assays described below measure the ability of a compound to bind to, and/or activate various retinoid receptor subtypes. When in these assays a compound binds to a given receptor subtype and activates the transcription of a reporter gene through that subtype, then the compound is considered an agonist of that receptor subtype. […] In the below described assays the ability of the compounds to bind to RARα, RARβ, RARγ, RXRα, RXRβ and RXRγ receptors, and the ability or inability of the compounds to activate transcription of a reporter gene through these receptor subtypes can be tested.
(§2) The results obtained in this assay are expressed in EC50 numbers, as they are also in the chimeric receptor transactivation assay. The results of ligand binding assay are expressed in Kd numbers.

[3] = target: T2, RARγ (Homo sapiens, UniProt P13631); test: ligand binding assay; details: last line of the stacked cell, read-out: RAR Kd γ
T2 sequence (P13631 1-454): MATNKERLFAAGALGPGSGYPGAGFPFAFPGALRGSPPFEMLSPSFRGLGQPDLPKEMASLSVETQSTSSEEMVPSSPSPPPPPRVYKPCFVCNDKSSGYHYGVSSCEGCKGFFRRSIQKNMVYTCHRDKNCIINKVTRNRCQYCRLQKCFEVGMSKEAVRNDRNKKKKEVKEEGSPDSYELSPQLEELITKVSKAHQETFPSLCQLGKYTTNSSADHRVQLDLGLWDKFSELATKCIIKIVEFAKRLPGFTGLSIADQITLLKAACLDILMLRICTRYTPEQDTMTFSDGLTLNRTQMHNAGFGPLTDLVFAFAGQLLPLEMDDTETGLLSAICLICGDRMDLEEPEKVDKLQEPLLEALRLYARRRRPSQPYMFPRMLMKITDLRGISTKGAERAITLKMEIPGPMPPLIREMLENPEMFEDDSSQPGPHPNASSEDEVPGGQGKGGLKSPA
Source text: as §1, §2

Row | pKd [2] | pKd [3] | Structure (SMILES) | Cutaneous Toxicity Score (Blackjack Score) ([1]; 100 nmole (nmol/25 g)) | Cutaneous Toxicity Score (Blackjack Score) ([1]; 1000 nmole (nmol/25 g)) | Cutaneous Toxicity Score (Blackjack Score) ([1]; 300 nmole (nmol/25 g))
1 |  |  | CC1(C)CCC(=O)c2ccc(C#Cc3ccc(CC(=O)O)cc3)cc21 [Compound 5, 4-[(8,8-Dimethyl-5-oxo-5,6,7,8-tetrahydro-naphthalene-2-yl-ethynyl)-phenyl]-acetic acid] | 0 | 6 ± 3 | 
2 |  |  | CN(C1CC1)C1CCC(C)(C)c2cc(C#Cc3ccc(CC(=O)O)cc3)ccc21 (stereo not shown) [Compound 8, 4-[(5-(Cyclopropyl-methyl-amino)-8,8-dimethyl-5,6,7,8-tetrahydro-naphthalene-2-yl-ethynyl)-phenyl]-acetic acid] | 5 ± 2 | 12 ± 1 | 8 ± 3
3 |  |  | CC1(C)CCC(=O)c2ccc(C#Cc3ccc(CC(=O)O)c(F)c3)cc21 [Compound 15, [2-Fluoro-4-(8,8-dimethyl-5-oxo-5,6,7,8-tetrahydro-naphthalene-2-yl-ethynyl)phenyl]-acetic acid] | 1 ± 1 | 5 ± 2 | 
4 |  |  | CN(C1CC1)C1CCC(C)(C)c2cc(C#Cc3ccc(CC(=O)O)c(F)c3)ccc21 (stereo not shown) [Compound 18, [4-(5-(Cyclopropyl-methyl-amino)-8,8-dimethyl-5,6,7,8-tetrahydro-naphthalene-2-yl-ethynyl)-2-fluoro-phenyl]-acetic acid] | 0 ± 0 | 10 ± 2 | 5 ± 2
5 |  |  | CC1(C)CN(C2CC2)Cc2ccc(C#Cc3ccc(CC(=O)O)c(F)c3)cc21 [Compound 22, [4-(2-Cyclopropyl-4,4-dimethyl-1,2,3,4-tetrahydro-isoquinolin-6-yl-ethynyl)-2-fluoro-phenyl]-acetic acid] | 0 ± 0 | 1 ± 1 | 0 ± 0
6 |  |  | CC1(C)CC(C)(C)c2cc(C#Cc3ccc(CC(=O)O)cc3)cc(C3CC3)c2O1 [Compound 36, [4-(8-Cyclopropyl-2,2,4,4-tetramethyl-chroman-6-yl-ethynyl)phenyl]acetic acid] | 1 ± 1 | 11 ± 0 | 
7 |  |  | CC1(C)CC(C)(C)c2cc(C#Cc3ccc(CC(=O)O)c(F)c3)cc(C3CC3)c2O1 [Compound 38, [4-(8-Cyclopropyl-2,2,4,4-tetramethyl-chroman-6-yl-ethynyl)-2-fluorophenyl] acetic acid] | 1 ± 1 | 10 ± 1 | 
8 | < 5.00 | < 5.00 | CC1(C)CC(C)(C)c2cc(C(=O)Oc3ccc(CC(=O)O)cc3)ccc2O1 [Compound 46, 2,2,4,4-Tetramethyl-chroman-6-carboxylic acid 4-(carboxymethyl)phenyl ester] |  |  | 
9 |  |  | CC1(C)CC2(CC2)Oc2c(C3CC3)cc(C#Cc3ccc(CC(=O)O)cc3)cc21 [Compound 48, Benzeneacetic acid, 4-[(8-cyclopropyl-3,4-dihydro-4,4-dimethylspiro[2H-1-benzopyran-2,1′-cyclopropane]-6-yl)ethynyl]-] | 1 ± 1 | 7 ± 2 | 3 ± 1
10 |  |  | CC1(C)CC2(CC2)Oc2c(C3CC3)cc(C#Cc3ccc(CC(=O)O)c(F)c3)cc21 [Compound 50] | 1 ± 0 | 8 ± 2 | 3 ± 2
11 |  |  | CC1(C)CC2(CC2)Oc2c(C3CC3)cc(C(=O)Oc3ccc(CC(=O)O)cc3)cc21 [Compound 58, Spiro[2H-1-benzopyran-2,1′-cyclopropane]-6-carboxylic acid, 8-cyclopropyl-3,4-dihydro-4,4-dimethyl-, 4-(carboxymethyl)phenyl ester] | 0 ± 0 | 0 ± 0 | 0 ± 0
12 |  | < 5.00 | CCCN(CCC)C1(c2ccc(C#Cc3ccc(C(=O)O)cc3)cc2)CC1 [Compound 110, 4-[4-(1-Dipropylamino-cyclopropyl)-phenylethynyl]-benzoic acid] |  |  | 
13 | < 5.00 |  | O=C(O)c1ccc(C#Cc2ccc(C3(N(Cc4ccccc4)Cc4ccccc4)CC3)cc2)cc1 [Compound 114, 4-[4-(1-Dibenzylamino-cyclopropyl)-phenylethynyl]-benzoic acid] |  |  | 
14 | < 4.00 |  | Cc1cc(C#Cc2ccc(CC(=O)O)cc2)ccc1Cn1ccnc1 [Compound 121, [4-(4-Imidazol-1-yl-methyl-3-methyl-phenylethynyl)-phenyl]-acetic acid] |  |  | 
15 |  |  | CCN(Cc1ccc(C#Cc2ccc(CC(=O)O)cc2)cc1C)C1CC1 [Compound 131, (4-{4-[(Cyclopropyl-ethyl-amino)-methyl]-3-methyl-phenylethynyl}-phenyl)-acetic acid] | 1 ± 1 | 1 ± 1 | 0 ± 1
16 |  |  | CC1(C)CCC(n2ccnc2)c2ccc(C#Cc3ccc(CC(=O)O)cc3)cc21 (stereo not shown) [Compound 137, [4-(5-Imidazol-1-yl-8,8-dimethyl-5,6,7,8-tetrahydro-naphthalen-2-yl-ethynyl)-phenyl]-acetic acid] | 1 ± 1 | 5 ± 2 | 1 ± 1
